Series [1] can be described thus: Cytotoxicity against human HEL cells. Type of series: cell-based.
The test system of series [2] is Vesicular stomatitis virus. Briefly: Antiviral activity against Vesicular stomatitis virus infected in human HEL cells assessed as reduction of virus-induced cytopathogenicity. Type of series: functional, organism-based. For orientation: Protection from cytopathic effect is a common read-out in antiviral testing.
The subject of series [3] is Human alphaherpesvirus 3. Put plainly: Antiviral activity against […] Varicella-zoster virus 07-1 infected in human HEL cells assessed as reduction of plaque formation. It is filed as functional, organism-based. Conditions: Human alphaherpesvirus 3, 07-1, HEL.
Series [4] deals with Influenza A virus. Briefly: Antiviral activity against influenza A virus H1N1 subtype infected in dog MDCK cells assessed as reduction of virus-induced cytopathogenicity by MTS assay. It is filed as functional, organism-based.
The test system of another series is Sindbis virus. Put plainly: Antiviral activity against Sindbis virus infected in african green monkey Vero cells assessed as reduction of virus-induced cytopathogenicity. Type of series: functional, organism-based.
Another series concerns Influenza B virus. Put plainly: Antiviral activity against influenza B virus infected in dog MDCK cells assessed as reduction of virus-induced cytopathogenicity by MTS assay. Type of series: functional, organism-based.
The test system of series [5] is Coxsackievirus. Briefly: Antiviral activity against Coxsackievirus B4 infected in human HeLa cells assessed as reduction of virus-induced cytopathogenicity. It is filed as functional, organism-based.
The nature of series [6]: (§1) Cytotoxicity against MDCK cells assessed as cell viability after 4 days by MTS assay. As to conditions: dog, MDCK cells. It is filed as cell-based, Canis lupus familiaris. In general terms: Tetrazolium assays rely on reduction of a dye to a coloured formazan, in cell work by metabolically active cells.
Series [7] in a line: Cytotoxicity against human HeLa cells. It is filed as cell-based.
Series [8] concerns Mammalian orthoreovirus 1. Briefly: Antiviral activity against Reovirus-1 infected in african green monkey Vero cells assessed as reduction of virus-induced cytopathogenicity. Type of series: functional, organism-based. As to conditions: Mammalian orthoreovirus 1, Vero.
Series [9] deals with Coxsackievirus. Briefly: Antiviral activity against Coxsackievirus B4 infected in african green monkey Vero cells assessed as reduction of virus-induced cytopathogenicity. Type of series: functional, organism-based.
The subject of the next series is Human respirovirus 3. Put plainly: Antiviral activity against Parainfluenza-3 virus infected in african green monkey Vero cells assessed as reduction of virus-induced cytopathogenicity. Conditions: Human respirovirus 3, Vero. Type of series: functional, organism-based.
A short description of series [10]: Cytotoxicity against african green monkey Vero cells. Type of series: cell-based. As to conditions: chlorocebus sabaeus.
Series [11] has as its system Influenza A virus. Put plainly: Antiviral activity against influenza A virus […] subtype infected in dog MDCK cells assessed as reduction of virus-induced cytopathogenicity by MTS assay. Type of series: functional, organism-based.
The subject of series [12] is Cytomegalovirus. Put plainly: Antiviral activity against Cytomegalovirus Davis infected in human HEL cells assessed as reduction of plaque formation. Type of series: functional, organism-based. As to conditions: Human betaherpesvirus 5, Davis.
For series [13], the system named is Cytomegalovirus. Put plainly: Antiviral activity against Cytomegalovirus AD-169 infected in human HEL cells assessed as reduction of plaque formation. Conditions: Human betaherpesvirus 5, AD-169, HEL. It is filed as functional, organism-based.
The subject of series [14] is Human alphaherpesvirus 3. Briefly: Antiviral activity against TK-positive Varicella-zoster virus OKA infected in human HEL cells assessed as reduction of plaque formation. It is filed as functional, cell-based. Conditions: Human alphaherpesvirus 3, strain Oka vaccine.
In a further series the test system is Human alphaherpesvirus 2. Briefly: Antiviral activity against Herpes simplex virus-2 G infected in human HEL cells assessed as reduction of virus-induced cytopathogenicity. Type of series: functional, organism-based. As to conditions: Human alphaherpesvirus 2, strain G.
Series [15] relates to Respiratory syncytial virus. Briefly: Antiviral activity against Respiratory syncytial virus infected in human HeLa cells assessed as reduction of virus-induced cytopathogenicity. Type of series: functional, organism-based.
Series [16] has as its system Human alphaherpesvirus 1. Put plainly: Antiviral activity against Herpes simplex virus-1 KOS infected in human HEL cells assessed as reduction of virus-induced cytopathogenicity. Type of series: functional, organism-based. As to conditions: Human alphaherpesvirus 1, KOS.
The next series deals with MDCK. Described as §1. Type of series: cell-based, Canis lupus familiaris. Conditions: dog, mdck, 96 h.
In another series the test system is Punta Toro virus. Put plainly: Antiviral activity against […] infected in african green monkey Vero cells assessed as reduction of virus-induced cytopathogenicity. Type of series: functional, organism-based.
Series [17] can be described thus: Cytotoxicity against cat CRFK cells. It is filed as cell-based, Felis catus. Conditions: crfk.
A further series relates to Plasmodium falciparum. Briefly: Antimalarial activity against chloroquine-sensitive Plasmodium falciparum D10 by two-fold dilution technique. It is filed as functional, organism-based.
The test system of series [18] is Human alphaherpesvirus 1. Briefly: Antiviral activity against TK-negative Herpes simplex virus 1 KOS infected in human HEL cells assessed as reduction of virus-induced cytopathogenicity. It is filed as functional, organism-based. As to conditions: Human alphaherpesvirus 1, KOS.
For series [19], the system named is Vesicular stomatitis virus. Briefly: Antiviral activity against Vesicular stomatitis virus infected in human HeLa cells assessed as reduction of virus-induced cytopathogenicity. It is filed as functional, organism-based.
Series [20] in a line: Inhibition of beta-hematin formation at 1 mg/ml. Type of series: functional.
Another series deals with Felid alphaherpesvirus 1. Briefly: Antiviral activity against feline herpesvirus infected in cat CRFK cells assessed as reduction of virus-induced cytopathogenicity by MTS assay. It is filed as functional, organism-based. As to conditions: Felid alphaherpesvirus 1, CRFK.
The test system of the next series is Feline coronavirus. Put plainly: Antiviral activity against Feline coronavirus infected in cat CRFK cells assessed as reduction of virus-induced cytopathogenicity by MTS assay. Type of series: functional, organism-based. Conditions: Alphacoronavirus 1, CRFK.

One may read the EC50 as the concentration at which the effect is half-maximal. The compound `Nc1nc2c(ncn2COCCO)c(=O)[nH]1` [ACYCLOVIR] yielded an MCC in series [1] of over 250 µM. The figures for the EC50 (in series [2]; in the series on Human alphaherpesvirus 3 [3]) were over 250 µM and 144 µM, respectively.

Take `NC(=O)c1ncn([C@@H]2O[C@H](CO)[C@@H](O)[C@H]2O)n1` [RIBAVIRIN]: the 50% effective concentration (EC50) in the series on Influenza A virus [4] is 2.5 µM; in the series on Sindbis virus it was over 250 µM; in the series with Influenza B virus, 2.8 µM; in the series on Coxsackievirus [5], 112 µM; in series [8], over 250 µM; in the series on Coxsackievirus [9], over 250 µM. Besides, the figures for the EC50 in the series with Human respirovirus 3 and in the series with Influenza A virus [11] (read-out: EC50) were 146 µM and 1.1 µM, respectively. Further, the MCC at 96 h in series [6] was over 100 µM. The MCC in series [7] and in [10] was over 250 µM each time.

As for `Nc1ccn(C[C@@H](CO)OCP(=O)(O)O)c(=O)n1` [CIDOFOVIR], the MCC in series [1] is over 250 µM. Further, the EC50 in series [2] is over 250 µM; with Cytomegalovirus [12], 1.84 µM; in the series with Cytomegalovirus [13], 0.86 µM.

Turning to `NC12CC3CC(CC(C3)C1)C2` [AMANTADINE], the EC50 in the series with Influenza A virus [4] was 17 µM; with Influenza B virus it was over 200 µM; with Influenza A virus [11], 0.3 µM. The MCC at 96 h in series [6] was over 200 µM.

`O=c1[nH]c(=O)n([C@H]2C[C@H](O)[C@@H](CO)O2)cc1/C=C/Br` [BRIVUDINE] displayed an MCC in series [1] of over 250 µM. Further, the EC50 in the series on Human alphaherpesvirus 3 [14] was 3.82 µM; in series [2], over 250 µM; with Human alphaherpesvirus 3 [3] it was 145 µM; in the series on Human alphaherpesvirus 2, 146 µM.

The term CC50 denotes the concentration at which the toxic effect on the cells reaches its halfway point. Usually IC50 stands for the concentration that gives 50% inhibition. As a reminder, the inhibition is the relative decrease from the control value, in per cent. With `CCOC(=O)c1c(C)nc(NCCCCNc2ccnc3cc(Cl)ccc23)nc1-c1ccccc1[N+](=O)[O-]`, the EC50 with Influenza A virus [4] was over 0.16 µM; in the series with Sindbis virus, over 0.8 µM; in the series on Influenza B virus it was over 0.16 µM; in series [15] it was over 20 µM; in the series with Human alphaherpesvirus 1 [16], over 4 µM; in the series with Coxsackievirus [5] it was over 20 µM. Moreover, the EC50 in the series on Punta Toro virus was over 0.8 µM; in series [8] it was over 0.8 µM; in the series on Human alphaherpesvirus 3 [14] it was over 4 µM; in the series on Coxsackievirus [9] it was over 0.8 µM; in the series on Human respirovirus 3, over 0.8 µM; in the series with Human alphaherpesvirus 1 [18], over 4 µM. Further, the EC50 in series [2] was over 4 µM; in the series on Cytomegalovirus [12] it was over 4 µM; in [19], over 20 µM; in the series on Felid alphaherpesvirus 1, over 100 µM; in the series on Human alphaherpesvirus 3 [3] it was over 4 µM; in the series on Feline coronavirus it was 9 µM. In addition, the figures for the EC50 with Cytomegalovirus [13], in the series on Human alphaherpesvirus 2 and with Influenza A virus [11] (read-out: EC50) were over 4 µM, over 4 µM and over 0.16 µM, respectively. The figures for the MCC in [1], in series [7] and in series [10] were 20 µM, 100 µM and 4 µM, respectively. Further, the CC50 in the series on MDCK was 0.8 µM; in series [17], over 100 µM. Also, the MCC at 96 h in series [6] amounted to 0.8 µM. Further, the IC50 in the series on Plasmodium falciparum is 1.46 µM. In addition, the inhibition in series [20] is 49%.

On to `Nc1ncnc2c1ncn2C[C@H](O)CO` [(S)-DHPA], for which the EC50 (in the series with Sindbis virus; in series [15]; in the series on Coxsackievirus [5]; in the series on Punta Toro virus; in series [8]; in the series with Coxsackievirus [9]) was over 250 µM throughout. Besides, the results for the EC50 (in the series with Human respirovirus 3; in [19]) were 146 µM and over 250 µM, respectively. Further, the MCC in [7] and in series [10] was over 250 µM each time.

The record behind these values is ChEMBL document CHEMBL2417501, “Synthesis of 4-aminoquinoline-pyrimidine hybrids as potent antimalarials and their mode of action studies” (Eur J Med Chem, 2013).
